Results as given in paper PMC11618975, “Design and Development of Novel Hybrids Based on Pyrrolo[2,1‐f][1,2,4]Triazine and 1‐(Methylpiperidin‐4‐yl) Aniline–Based Analogs: Exploring the Utility as Anticancer Agents via MERTK Inhibition” (Chemical Biology & Drug Design, 2024).
“Also recorded” adds a separate entry of the source. Where two headings read alike, the source gives them in different places.

What was measured:
A549 lung cancer cells = test: Cell viability (resazurin) assay, A549; assay type: cell-based; settings: read-out: IC50 values (mean ± SD) A549
Description: (§1) This includes lung cancer cells (A549) and breast cancer cells (MCF‐7 and MDA‐MB‐231). […] The remaining compounds were also found to portray the inhibition at a low micromolar range and better than the cisplatin, employed as a positive control during the experiment.
(§2) The cell viability assay of new compounds was performed against A549, MCF‐7, and MDA‐MB‐231 carcinoma cell lines. The cells (2500 cells/well) were seeded in a 96‐well plate using DMEM media (Gibco by Life Technologies) consisting of 10% FBS and subjected to incubation at 37°C for 24 h in 5% CO2 in a Nuaire incubator (humidified) for adherence to surface and growth. After 24 h, cells were subjected to treatment against target compounds (1K1‐1K5) at different concentrations (final concentrations ranging from 0.01–30 μM) and left for incubation for 72 h at the same conditions as mentioned above. The same procedure was repeated after 72 h after replacing the remaining test compound with fresh media and incubating treated cells for a further 48 h. After incubation, the remaining compounds with media were removed followed by washing with fresh media and the addition of 100 μL of resazurin (1 mM, Sigma). The 96‐well plate was incubated for 4 h at room temperature. A multimode microplate reader was used to record fluorescence at 535 nm (excitation) and 590 nm (emission) wavelengths. Background fluorescence was subtracted for calculating final results and avoiding any interference and normalized against vehicle control (DMSO treated cells) to calculate final cell viability. Cell viability (percentage) was used to calculate the IC50 values of the target compounds using fitting the curve to the “four‐parameter variable slope logistic model” using Prism Graph Pad (Kathuria et al. [2023]; Rani et al. [2023]).

[1] = test system: MCF-7 breast cancer cells; test: Cell viability (resazurin) assay, MCF-7; assay type: cell-based; settings: read-out: IC50 values (mean ± SD) MCF-7
Description: as §1, §2

[2] = test system: MDA-MB-231 breast cancer cells; test: Cell viability (resazurin) assay, MDA-MB-231; assay type: cell-based; settings: MDA-MB-231 cells, read-out: IC50 values (mean ± SD) MDA-MB-231
Description: as §1, §2

[3] = Human liver microsomal stability (DMPK); assay type: in vitro ADME; settings: for % parent remaining: human liver microsomes 0.5 mg/mL, 1 μM compound, NADPH, 30 min; for half-life at 1 μM: human, liver microsomes, pH 7.4, human liver microsomes, read-out: T 1/2 (HLM); for microsomal CLint at 1 μM: pH 7.4, human liver microsomes, read-out: CLint (HLM)
Description: (§3) To understand the intrinsic pharmacokinetics of synthetics and their stability in relation to human liver microsomal (HLM) and mouse liver microsomal (MLM), we performed the DMPK studies.
(§4) The DMPK evaluation involves multiple reagents and instruments. The chemical and reagents include synthesized target molecules (at a concentration of 1–3 mg), DMSO (HPLC grade), PBS (pH = 7.4), NADPH, and liver microsomes (human and mouse) procured from Thermo. The instruments include Nexera X2 UPLC with an AB Sciex QTrap 4500 MS/MS detector (Shimadzu), single and multichannel micropipette (Eppendorf USA and Thermo), a 96‐well plate (1 mL capacity with deep wells) vortex mixer (Tarsons), centrifuge tubes (Tarsons) water bath (MRC), and a centrifuge (Thermo). The fresh stock solutions (10 mM) were prepared and incubations were carried out in duplication. Each well‐comprised potassium phosphate buffer (100 mM, pH 7.4) with 0.5 mg/mL microsome, NADPH (1 mM), and target molecule (1 μM). After 30 min incubation (37°C), the aliquots were taken at 0 and 30 min and quenched with chilled acetonitrile comprising Terfenadine as internal standard. The samples were centrifuged at 4000 rpm at 4°C, and the supernatant was subjected to LC–MS/MS for analysis. The experiment was used to determine the half‐life of the compound with the help of peak area ratio relative to the internal standard.

[4] = Mouse liver microsomal stability (DMPK); assay type: in vitro ADME; settings: for % parent remaining: mouse liver microsomes 0.5 mg/mL, 1 μM compound, NADPH, 30 min; for half-life at 1 μM: mouse, liver microsomes, pH 7.4, mouse liver microsomes, read-out: T 1/2 (MLM); for microsomal CLint at 1 μM: pH 7.4, mouse liver microsomes, read-out: CLint (MLM)
Description: as §3, §4

MERTK (cMER) = target: T1, MERTK (cMER) (Homo sapiens, UniProt Q12866); test: MERTK kinase inhibition assay (Z-Lyte kinase assay kit); assay type: biochemical
T1 sequence (Q12866 21-999): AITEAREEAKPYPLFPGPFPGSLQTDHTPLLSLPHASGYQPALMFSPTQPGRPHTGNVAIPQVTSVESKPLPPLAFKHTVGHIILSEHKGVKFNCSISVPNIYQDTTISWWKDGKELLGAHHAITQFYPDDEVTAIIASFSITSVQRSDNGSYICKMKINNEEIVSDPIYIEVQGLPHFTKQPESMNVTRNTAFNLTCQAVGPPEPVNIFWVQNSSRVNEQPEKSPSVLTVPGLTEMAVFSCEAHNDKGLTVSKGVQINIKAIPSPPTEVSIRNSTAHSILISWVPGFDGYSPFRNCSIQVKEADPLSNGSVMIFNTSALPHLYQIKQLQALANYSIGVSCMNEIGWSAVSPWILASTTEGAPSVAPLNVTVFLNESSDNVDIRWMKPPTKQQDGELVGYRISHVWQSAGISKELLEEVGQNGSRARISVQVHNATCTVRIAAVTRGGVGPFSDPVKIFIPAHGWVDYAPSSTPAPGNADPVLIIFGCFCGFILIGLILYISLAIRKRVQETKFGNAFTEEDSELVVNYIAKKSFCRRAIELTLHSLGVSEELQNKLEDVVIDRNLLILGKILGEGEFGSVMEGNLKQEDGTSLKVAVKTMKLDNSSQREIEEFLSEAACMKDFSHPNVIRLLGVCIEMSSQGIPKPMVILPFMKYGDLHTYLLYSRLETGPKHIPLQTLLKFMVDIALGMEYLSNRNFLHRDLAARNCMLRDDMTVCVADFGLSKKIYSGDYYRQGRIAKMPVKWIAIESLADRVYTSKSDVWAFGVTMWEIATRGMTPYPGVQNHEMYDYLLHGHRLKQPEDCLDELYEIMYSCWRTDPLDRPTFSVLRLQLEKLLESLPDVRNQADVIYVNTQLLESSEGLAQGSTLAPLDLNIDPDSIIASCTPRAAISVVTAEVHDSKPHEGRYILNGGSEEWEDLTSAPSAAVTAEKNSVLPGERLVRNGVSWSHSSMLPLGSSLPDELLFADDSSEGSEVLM
Description: All the synthesized molecules were assessed for their kinase inhibitory activity against MERTK using a kinase inhibition assay.
[…] (z‐Lyte kinase assay kit‐tyr4 peptide) was utilized to determine MERTK inhibitory activity as per the protocol supplied by the supplier along with the kit. Briefly, the mixture of MERTK (cMER) / Tyr 02 (2X) was made using HEPES buffer (50 mM, pH 7.5) comprising polyoxyethylene lauryl ether solution (0.01%), MgCl2 (10 mM), MnCl2 (4 mM), EGTA (1 mM), and DTT (2 mM). The kinase solution of 10 μL was used as the final reaction solution. In the next step, the target molecules in varying concentrations were incubated with kinase solution for 1 h. Development reagent A (5 μL) of 1:128 dilution was added after the incubation period. The fluorescence was measured at Ex/Em 400, 445, and 520 nm using a microplate reader for the determination of final percentage inhibition. The percent phosphorylation was determined via the use of the emission ratio calculated from the division of Coumarin Emission (at 445 nm) to fluorescein emission (at 520 nm). %phosphorylation=1−Emission ratio×F100%−C100%/C0%−C100%+Emission ratioF100%−F0%

[5] = Homo sapiens, MCF7, MCF-7 cells

`CN1CCC(c2ccc(Nc3ncnn4cc(-c5cc(F)c(F)c(F)c5)cc34)cc2F)CC1` [1K1, N‐(3‐Fluoro‐4‐(1‐Methylpiperidin‐4‐yl)phenyl)‐6‐(3,4,5‐trifluorophenyl)pyrrolo[2,1‐f][1,2,4]Triazin‐4‐Amine] showed an IC50 (A549 lung cancer cells; Homo sapiens) of 8630 ± 21 nM, an IC50 [1, 5] of 1280 ± 14 nM and an IC50 ([2]; Homo sapiens) of 4020 ± 15 nM. For the same compound, the % parent remaining [3] was 71.7%, the half-life at 1 μM [3] was 1.04 h and the microsomal CLint at 1 μM [3] was 22 µL/min/mg. It also gave a % parent remaining [4] of 70%, a half-life at 1 μM [4] of 0.972 h and a microsomal CLint at 1 μM [4] of 24 µL/min/mg.

For `CCOc1c(Cl)cc(-c2cc3c(Nc4ccc(C5CCN(C)CC5)c(F)c4)ncnn3c2)cc1OC` [1K2, 6‐(3‐Chloro‐4‐Ethoxy‐5‐Methoxyphenyl)‐N‐(3‐Fluoro‐4‐(1‐Methylpiperidin‐4‐yl)phenyl)pyrrolo[2,1‐f][1,2,4]Triazin‐4‐Amine], the IC50 (A549 lung cancer cells; Homo sapiens) was 1180 ± 19 nM, the IC50 [1, 5] was 440 ± 15 nM and the IC50 ([2]; Homo sapiens) was 1700 ± 11 nM. The % parent remaining [3] was 82.8%, the half-life at 1 μM [3] was 1.83 h and the microsomal CLint at 1 μM [3] was 13 µL/min/mg. The % parent remaining [4] was 83.4%, the half-life at 1 μM [4] was 1.9 h and the microsomal CLint at 1 μM [4] was 12 µL/min/mg.

Compound `CN1CCC(c2ccc(Nc3ncnn4cc(-c5ccc(C(C)(C)C)cc5)cc34)cc2F)CC1` [1K3, 6‐(4‐(Tert‐butyl)phenyl)‐N‐(3‐Fluoro‐4‐(1‐Methylpiperidin‐4‐yl)phenyl)pyrrolo[2,1‐f][1,2,4]Triazin‐4‐Amine] has an IC50 (A549 lung cancer cells; Homo sapiens) of 1440 ± 17 nM, an IC50 [1, 5] of 1420 ± 21 nM and an IC50 ([2]; Homo sapiens) of 4060 ± 19 nM. The % parent remaining [3] was 65.7%, the half-life at 1 μM [3] was 0.615 h and the microsomal CLint at 1 μM [3] was 28 µL/min/mg. For the same compound, the % parent remaining [4] was 57%, the half-life at 1 μM [4] was 0.823 h and the microsomal CLint at 1 μM [4] was 38 µL/min/mg.

For `COc1cc(-c2cc3c(Nc4ccc(C5CCN(C)CC5)c(F)c4)ncnn3c2)cc(Cl)c1F` [1K4, 6‐(3‐Chloro‐4‐Fluoro‐5‐Methoxyphenyl)‐N‐(3‐Fluoro‐4‐(1‐Methylpiperidin‐4‐yl)phenyl)pyrrolo[2,1‐f][1,2,4]Triazin‐4‐Amine], the IC50 (A549 lung cancer cells; Homo sapiens) was 890 ± 11 nM, the IC50 [1, 5] was 1140 ± 11 nM and the IC50 ([2]; Homo sapiens) was 1470 ± 14 nM. It also gave a % parent remaining [3] of 75.8%, a half-life at 1 μM [3] of 1.25 h and a microsomal CLint at 1 μM [3] of 18 µL/min/mg. The % parent remaining [4] was 91.7%, the half-life at 1 μM [4] was 3.97 h and the microsomal CLint at 1 μM [4] was 6 µL/min/mg.

With `CCOc1ccc(-c2cc3c(Nc4ccc(C5CCN(C)CC5)c(F)c4)ncnn3c2)cc1OC` [1K5, 6‐(4‐Ethoxy‐3‐Methoxyphenyl)‐N‐(3‐Fluoro‐4‐(1‐Methylpiperidin‐4‐yl)phenyl)pyrrolo[2,1‐f][1,2,4]Triazin‐4‐Amine] the IC50 (A549 lung cancer cells; Homo sapiens) was 360 ± 19 nM, the IC50 [1, 5] was 420 ± 17 nM and the IC50 ([2]; Homo sapiens) was 800 ± 11 nM. It also gave a % parent remaining [3] of 94.9%, a half-life at 1 μM [3] of 6.61 h and a microsomal CLint at 1 μM [3] of 3 µL/min/mg. For the same compound, the % parent remaining [4] was 79.7%, the half-life at 1 μM [4] was 1.54 h and the microsomal CLint at 1 μM [4] was 15 µL/min/mg. The “inhibition of MERTK” value (MERTK (cMER); 1 and 10 μM test concentrations) was “approx. 42%” and the “MERTK inhibition compared with positive control staurosporine” value (MERTK (cMER); listed as IK5) was “comparable inhibition to positive control staurosporine; also recorded: comparable inhibitory potential to the positive control drug staurosporine”.

For `N.N.[Cl][Pt][Cl]` [Cisplatin, cisplatin, reference compound], the IC50 (A549 lung cancer cells) was 5860 ± 9 nM, the IC50 ([1]; MCF-7 cells) was 4930 ± 130 nM and the IC50 [2] was 5420 ± 90 nM.
